# Molecular target: NS3 (Hepatitis C virus, UniProt A3EZJ3)
# Test: Inhibition of Hepatitis C virus NS3 serine protease
# Design: species or system Hepacivirus hominis
# Sequence of NS3 (A3EZJ3 whole entry): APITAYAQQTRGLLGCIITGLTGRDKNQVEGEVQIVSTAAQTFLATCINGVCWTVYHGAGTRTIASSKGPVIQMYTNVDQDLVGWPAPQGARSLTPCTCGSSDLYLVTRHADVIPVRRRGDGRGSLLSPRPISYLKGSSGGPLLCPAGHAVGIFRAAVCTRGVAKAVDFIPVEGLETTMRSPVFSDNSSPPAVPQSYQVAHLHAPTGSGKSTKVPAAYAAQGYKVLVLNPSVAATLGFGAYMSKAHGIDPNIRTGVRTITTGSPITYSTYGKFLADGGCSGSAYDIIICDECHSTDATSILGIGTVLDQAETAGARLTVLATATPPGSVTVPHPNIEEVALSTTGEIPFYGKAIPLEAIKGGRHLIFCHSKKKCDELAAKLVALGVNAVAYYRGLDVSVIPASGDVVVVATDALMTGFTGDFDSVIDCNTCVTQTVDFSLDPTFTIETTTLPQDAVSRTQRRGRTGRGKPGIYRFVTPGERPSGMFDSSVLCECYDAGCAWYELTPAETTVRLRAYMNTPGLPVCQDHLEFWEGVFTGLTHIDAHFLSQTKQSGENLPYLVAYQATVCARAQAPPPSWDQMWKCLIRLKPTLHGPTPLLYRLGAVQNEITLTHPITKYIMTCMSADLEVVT
row,Structure (SMILES),Ki [µM]
1,C=CCNC(=O)C(=O)[C@H](CCC)NC(=O)[C@@H]1CN(CC(=O)OCC)C(=O)N1C(=O)[C@@H](NC(=O)[C@@H](NC(=O)[C@H](CCC(=O)OC(C)(C)C)NC(=O)[C@H](CCC(=O)OC(C)(C)C)NC(C)=O)C(C)C)C(C)C,30
2,C=CCNC(=O)C(=O)[C@H](CCC)NC(=O)[C@@H]1CN(Cc2ccccc2)C(=O)N1C(=O)[C@@H](NC(=O)[C@@H](NC(=O)[C@H](CCC(=O)OC(C)(C)C)NC(=O)[C@H](CCC(=O)OC(C)(C)C)NC(C)=O)C(C)C)C(C)C,61
3,C=CCOC(=O)CNC(=O)C(=O)C(CCC)NC(=O)[C@@H]1CN(Cc2ccccc2)C(=O)N1C(=O)[C@@H](NC(=O)[C@@H](NC(=O)[C@H](CCC(=O)OC(C)(C)C)NC(=O)[C@H](CCC(=O)OC(C)(C)C)NC(C)=O)C(C)C)C(C)C (stereo partly specified),> 100
4,C=CCOC(=O)CNC(=O)C(=O)[C@H](CCC)NC(=O)[C@@H]1CN(Cc2ccc(Cl)c(Cl)c2)C(=O)N1C(=O)[C@@H](NC(=O)[C@@H](NC(=O)[C@H](CCC(=O)O)NC(=O)[C@H](CCC(=O)O)NC(C)=O)C(C)C)C(C)C,0.31
5,C=CCNC(=O)C(=O)[C@H](CCC)NC(=O)[C@@H]1CNC(=O)N1C(=O)[C@@H](NC(=O)[C@@H](NC(=O)[C@H](CCC(=O)O)NC(=O)[C@H](CCC(=O)O)NC(C)=O)C(C)C)C(C)C,46
6,C=CCNC(=O)C(=O)C(CCC)NC(=O)[C@@H]1CN(CC(=O)OCC)C(=O)N1C(=O)[C@@H](NC(=O)OC(C)(C)C)C(C)C (stereo partly specified),150
7,C=CCNC(=O)C(=O)[C@H](CCC)NC(=O)[C@@H]1CNC(=O)N1C(=O)[C@@H](NC(=O)[C@@H](NC(=O)[C@H](CCC(=O)OC(C)(C)C)NC(=O)[C@H](CCC(=O)OC(C)(C)C)NC(C)=O)C(C)C)C(C)C,69
8,C=CCOC(=O)CNC(=O)C(=O)[C@H](CCC)NC(=O)[C@@H]1CN(Cc2ccccc2)C(=O)N1C(=O)[C@@H](NC(=O)[C@@H](NC(=O)[C@H](CCC(=O)O)NC(=O)[C@H](CCC(=O)O)NC(C)=O)C(C)C)C(C)C,1
9,C=CCNC(=O)C(=O)[C@H](CCC)NC(=O)[C@@H]1CN(Cc2ccccc2)C(=O)N1C(=O)[C@@H](NC(=O)[C@@H](NC(=O)[C@H](CCC(=O)O)NC(=O)[C@H](CCC(=O)O)NC(C)=O)C(C)C)C(C)C,1
10,C=CCNC(=O)C(=O)[C@H](CCC)NC(=O)[C@@H]1CN(CC(=O)OCC)C(=O)N1C(=O)[C@@H](NC(=O)[C@@H](NC(=O)[C@H](CCC(=O)O)NC(=O)[C@H](CCC(=O)O)NC(C)=O)C(C)C)C(C)C,4
11,C=CCOC(=O)CNC(=O)C(=O)C(CCC)NC(=O)[C@@H]1CN(Cc2ccc(Cl)c(Cl)c2)C(=O)N1C(=O)[C@@H](NC(=O)[C@@H](NC(=O)[C@H](CCC(=O)OC(C)(C)C)NC(=O)[C@H](CCC(=O)OC(C)(C)C)NC(C)=O)C(C)C)C(C)C (stereo partly specified),> 100

# — ChEMBL document CHEMBL1137058, “Novel 2-oxoimidazolidine-4-carboxylic acid derivatives as hepatitis C virus NS3-4A serine protease inhibitors: synthesis, activity, and X-ray crystal structure of an enzyme inhibitor complex” (Bioorg Med Chem Lett, 2004)
